We go through two sequences from patent publication US11806393B2, “Flavivirus peptide sequences, epitopes, and methods and uses thereof” (priority 2017, dated 2023).

Common to all, as to type: cell-based, mouse
The test system of assay [1] is CD8+ T cells. The experiment in a line: IFNγ ELISPOT, DENV2 S221-infected Ifnar-/- HLA-B*0702 transgenic mice. The conditions noted are these: HLA-B*0702 mice, 7 days after 2×10^4 FFU DENV2 S221. The protocol: (§1) Two ZIKV strains, MR766 (Uganda, 1947) and FSS13025 (Cambodia, 2010), were obtained from the World Reference Center for Emerging Viruses and Arboviruses (WRCEVA). The mouse-adapted DENV2 strain S221 is a triple-plaque purified clone derived from DENV2 D2S1038. Both ZIKV and DENV2 were amplified in C6/36 mosquito cells, and viral titers were measured using baby hamster kidney (BHK)-21 cell-based focus forming assay (FFA). For epitope screening, 5-week old mice (female or male) were infected retro-orbitally (R.O.) with either 1×102 FFU of ZIKV FSS13025 or ZIKV MR766, or 2×10^4 FFU of DENV2 S221 in 200 μl 10% FBS/PBS. Seven days after infection, CD8^+ T cells were isolated from splenocytes and used for ELISPOT assay, while the splenocytes were directly used for ICS assay. Additionally, 5-week old mice were inoculated I.P. with 2×10^3 FFU of DENV2 S221 for 4 weeks.
CD8^+ T cells were isolated from splenocytes using magnetic bead positive selection (Miltenyi Biotec, Germany) 7 days after virus infection. 2×10^5 CD8^+ T cells were stimulated with 1×10^5 LPS-blasts loaded with 10 μg of individual peptide in 96-well flat-bottom plates (IMMOBILON™-P; Millipore, Bedford, Mass.) that were coated with anti-IFNγ mAb (clone AN18; Mabtech, Stockholm, Sweden) in triplicate. Concanavalin A (ConA) was used as positive control. After 20 hours of incubation, biotinylated anti-mouse IFNγ mAb (R4-6A2; Mabtech), followed by ABC peroxidase (Vector Laboratories, Burlingame, Calif., USA) and then 3-amino-9-ethylcarbazole (Sigma-Aldrich, St. Louis, Mo., USA) were added into the wells. […] A peptide inducing a magnitude of >500 SFCs/10^6 CD8^+ T cells was considered as an immunodominant peptide.
(§2) The following results are with respect to FIG. 14A and FIG. 14B, where Ifnar^−/− HLA-B*0702 transgenic mice were infected R.O. with 2×10^4 FFU of DENV2 strain S221 for 7 days. CD8^+ T cells isolated from splenocytes were stimulated with each of the 37 ZIKV epitopes identified via IFNγELISPOT to perform (FIG. 14A) IFNγELISPOT and (FIG. 14B) ICS assay. Data represent the average of two independent IFNγELISPOT experiments and two independent ICS experiments (n=7 mice) and are expressed as mean±SEM. Dotted line corresponds to the cutoff value. *, P<0.05.

Assay [2] deals with CD8+ T cells. The experiment in a line: IFNγ ICS, DENV2 S221-infected Ifnar-/- HLA-B*0702 transgenic mice. To be noted: HLA-B*0702 mice; for % IFNγ+ CD8+ T cells, S221: 7 days after DENV2 S221, ICS; for ZIKV/DENV cross-reactivity in DENV2-infected mice (IFNγ ELISPOT and IFNγ ICS): DENV2 S221, 7 days. The method, then:
as §1
Spleens were harvested from virus-infected, mock-immunized, or peptide-immunized mice. 1×10^6 splenocytes were plated in each well of 96-well U-bottom plates and stimulated with individual peptide (10 μg crude peptide or 1 μg pure peptide per well) for 6 hours. Five hours before the end of incubation, Brefeldin A (GolgiPlug; BD Biosciences) and PE-conjugated anti CD107a mAb (clone 1D4B, eBioscience) were added to the cells. Splenocytes stimulated with PMA-ionomycin were used as the positive control, while cells without any stimulation were the negative control. […] Samples were run using an LSR™ II (BD Biosciences) and analyzed using FLOWJO™ software X 10.0.7 (Tree Star, Ashland, Oreg.).
as §2

The test system of assay [3] is CD8+ T cells. The experiment in a line: IFNγ ELISPOT, ZIKV-infected Ifnar-/- HLA-B*0702 transgenic mice. The conditions noted are these: HLA-B*0702 mice; for SFC/10^6 CD8+ T cells, FSS13025: 7 days after 1×10^2 FFU ZIKV FSS13025; for SFC/10^6 CD8+ T cells, MR766: 7 days after 1×10^2 FFU ZIKV MR766; for immunodominance in IFNγ ELISPOT: immunodominant: >500 SFCs/10^6 CD8+ T cells, shared by both ZIKV strains. The gist of the method: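 Mice were infected retro-orbitally with 1×10^2 FFU ZIKV (FSS13025 or MR766), and splenic CD8+ T cells were isolated 7 days later. 2×10^5 cells were stimulated 20 h with 1×10^5 LPS-blasts loaded with 10 μg peptide, in triplicate. Output is SFC/10^6 CD8+ T cells; positive if net >20 and stimulation index >2.0.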

Consider KPRWMDARV [FSS/MR-NS3574-582], for which the “SFC/10^6 CD8+ T cells, S221” value in assay [1] was determined as 350 SFC/10^6 CD8+ T cells. In assay [2], the “% IFNγ+ CD8+ T cells, S221” value is given as “(0.63%)”; the “ZIKV/DENV cross-reactivity in DENV2-infected mice (IFNγ ELISPOT and IFNγ ICS)” value was “positive in both IFNγ ELISPOT and IFNγICS assays”. Also, in assay [3], the “SFC/10^6 CD8+ T cells, FSS13025” value turned out to be 969 SFC/10^6 CD8+ T cells; the “SFC/10^6 CD8+ T cells, MR766” value came out at 1095 SFC/10^6 CD8+ T cells; the “immunodominance in IFNγ ELISPOT” value is given as “immunodominant”.
Take RPALLVSFIF [FSS/MR-NS2A75-84]: the “SFC/10^6 CD8+ T cells, S221” value in assay [1] is recorded as 88 SFC/10^6 CD8+ T cells. Further, in assay [2], the “% IFNγ+ CD8+ T cells, S221” value was “(0.58%)”; the “ZIKV/DENV cross-reactivity in DENV2-infected mice (IFNγ ELISPOT and IFNγ ICS)” value was “positive in both IFNγ ELISPOT and IFNγICS assays”. In addition, in assay [3], the “SFC/10^6 CD8+ T cells, FSS13025” value turned out to be 713 SFC/10^6 CD8+ T cells; the “SFC/10^6 CD8+ T cells, MR766” value was determined as 582 SFC/10^6 CD8+ T cells; the “immunodominance in IFNγ ELISPOT” value was “immunodominant”.
